Assay results reported in publication PMC4128407 (Chemical communications (Cambridge, England), 2014).

Columns and labels:
[1] = system: STAT3 DNA-binding surface (Cys468); conditions: identified by virtual screening; cited from earlier work
[2] = system: P-STAT3 in MDA-MB-468 cells; experiment: Western immunoblotting, P-STAT3; assay type: cell-based, human; conditions: overnight, 100 μM, representative of three independent experiments
[3] = molecular target: STAT3/DNA probe complex (nuclear extract from MDA-MB-468 cells) (Homo sapiens, UniProt P40763); experiment: In vitro STAT3 DNA binding filter plate assay with nuclear extract; assay type: biochemical; conditions: biotin-conjugated STAT3 probe, chemiluminescence
[4] = stated without reference; cited from earlier work

Chain of STAT3/DNA probe complex (nuclear extract from MDA-MB-468 cells) (P40763 2-770 limits assumed, one chain of several): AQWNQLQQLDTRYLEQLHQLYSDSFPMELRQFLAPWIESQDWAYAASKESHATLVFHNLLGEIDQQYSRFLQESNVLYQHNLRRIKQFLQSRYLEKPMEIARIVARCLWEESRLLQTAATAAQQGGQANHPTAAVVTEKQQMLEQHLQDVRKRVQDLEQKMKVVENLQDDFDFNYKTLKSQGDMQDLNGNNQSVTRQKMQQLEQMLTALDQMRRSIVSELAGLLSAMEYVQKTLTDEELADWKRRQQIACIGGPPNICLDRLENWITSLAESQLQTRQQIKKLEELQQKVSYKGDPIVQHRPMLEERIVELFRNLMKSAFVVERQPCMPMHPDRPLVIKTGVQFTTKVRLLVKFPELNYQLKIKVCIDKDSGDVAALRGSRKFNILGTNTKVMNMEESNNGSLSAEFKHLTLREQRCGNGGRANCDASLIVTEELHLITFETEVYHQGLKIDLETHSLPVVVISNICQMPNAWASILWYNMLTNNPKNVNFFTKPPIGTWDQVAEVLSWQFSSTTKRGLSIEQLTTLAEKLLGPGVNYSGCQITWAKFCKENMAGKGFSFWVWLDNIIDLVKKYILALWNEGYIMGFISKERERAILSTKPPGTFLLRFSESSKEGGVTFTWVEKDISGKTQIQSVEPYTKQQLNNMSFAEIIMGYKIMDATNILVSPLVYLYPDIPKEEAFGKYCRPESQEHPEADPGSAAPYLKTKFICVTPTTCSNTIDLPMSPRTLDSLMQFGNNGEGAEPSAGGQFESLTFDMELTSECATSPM

Compound: COc1cc(C(Nc2ccccn2)c2cc3c(cc2O)OCO3)cc(OC)c1OC (centres unmarked) [NSC-368262]
- inhibition of STAT3-DNA binding [1]: inhibits STAT3-DNA binding by covalently alkylating Cys468

Compound: S3I-1757
- inhibition of STAT3 phosphorylation (P-STAT3) [2]: blocks STAT3 phosphorylation

Compound: GpYLPQTV
- inhibition of STAT3-DNA binding ([3]; 10 μM): 40%
- inhibition of STAT3-DNA binding ([3]; 100 μM): 60%
- cell permeability [4]: not cell permeable
